{"source": "patent US11576913B2", "about": "(priority 2018, dated 2023)", "key": {"[1]": {"system": "subjects suffering from the Insomnia Disorder adult insomnia", "type": "in vivo, human", "experimental": "Following the evening-time dosing with study drug, subjects underwent eight hours of continuous PSG recording. Next-day residual effects were assessed by the DSST and the KSS evaluation, collected in that order, starting at approximately 30 minutes after “lights-on.” All tests were administered in the clinical unit, beginning 30 minutes after lights-on and periodically thereafter for approximately 16 hours post-lights-off, following completion of PSG recording. Each subject also completed a post-sleep questionnaire once after lights-on so that subjective impressions could be assessed about the “quality” and “quantity” of their sleep. Before the second night dosing in each dosing period, subjects were evaluated for any residual sleepiness. […] Subjects remained in the clinic until residual symptoms were minimized.\nThe well-known DSST is a paper-and-pencil neuropsychological test that explores attention and psychomotor speed and was therefore useful as an indication of next day residual effects, if any. When administered in multiple sessions over time, the DSST provided an objective indication of the change in performance.\nEach subject was asked to match symbols with their corresponding digit as follows. […] The subject filled in as many squares as possible during the allowed 90 second time limit. The score was determined from the number of correct symbols. An untimed 7 blank square practice opportunity was provided before the 90 second time period began. Six different versions of the test were used to avoid learning effects that could occur if only a single version was used.\nThe DSST was administered starting approximately ½ hour after lights-on (i.e., about 9 hours post-dosing) and at about 1, 3, 4, 5, and 7 hours thereafter following completion of PSG recordings after each night of the baseline visit (Visit 2) and after each night of Dosing Periods 1-5.\nThe DSST results shown, other than for the baseline, are the mean results obtained from the DSST scores following all nights of Dosing Periods 1-5 for the indicated dose. The DSST results for the baseline are the mean results obtained following the first and second nights of the baseline visit. Note that for clarity of display purposes, in FIG. 6 many of the test results at each time period, e.g., at approximately ½ hour after lights-on/9 hours post-dosing, were staggered arbitrarily away from the actual time when the test was conducted."}, "[2]": {"settings": "0.2 mg aqueous suspension (N =24)"}, "[3]": {"settings": "0.6 mg aqueous suspension (N =24)"}, "[4]": {"settings": "2.0 mg aqueous suspension (N =23)"}, "[5]": {"settings": "6.0 mg aqueous suspension (N =25)"}}, "note": "Where two headings read alike, the source gives them in different places."}
{"smiles": "O=C(O)c1nc2ccccc2n([C@H]2C[C@H]3CCC[C@@H](C2)N3C2CC3CCCC(C3)C2)c1=O", "note": "(stereo partly drawn) [Compound (1C)]", "values": [{"measurement": "Ae, Mean", "setting": "[2]", "value": 0.2232, "unit": "mg"}, {"measurement": "Fe, Mean (fraction of dose excreted unchanged in urine over 24 hours)", "setting": "[2]", "value": 111.60, "unit": "%"}, {"measurement": "Ae, Mean", "setting": "[3]", "value": 0.6891, "unit": "mg"}, {"measurement": "Fe, Mean (fraction of dose excreted unchanged in urine over 24 hours)", "setting": "[3]", "value": 114.84, "unit": "%"}, {"measurement": "Ae, Mean", "setting": "[4]", "value": 2.165, "unit": "mg"}, {"measurement": "Fe, Mean (fraction of dose excreted unchanged in urine over 24 hours)", "setting": "[4]", "value": 108.26, "unit": "%"}, {"measurement": "Ae, Mean", "setting": "[5]", "value": 6.653, "unit": "mg"}, {"measurement": "Fe, Mean (fraction of dose excreted unchanged in urine over 24 hours)", "setting": "[5]", "value": 110.88, "unit": "%"}, {"measurement": "next day residual effects by mean DSST results vs placebo", "setting": "[1]; 0.5 mg, about 9 to about 16 hours post-dosing", "value": "no next day residual effects"}, {"measurement": "next day residual effects by mean DSST results vs placebo", "setting": "[1]; 1.0 mg, about 9 to about 16 hours post-dosing", "value": "no next day residual effects"}, {"measurement": "next day residual effects by mean DSST results vs placebo", "setting": "[1]; 3.0 mg, deviations at about 9, 10, 12, and 13 hours", "value": "minimal next day residual effects"}, {"measurement": "next day residual effects by mean DSST results vs placebo", "setting": "[1]; 6.0 mg, each of the testing times", "value": "some next day residual effects"}]}
